Experimental data reported in patent publication US8580814B2, “Methods of using (+)-1,4-dihydro-7-[(3S,4S)-3-methoxy-4-(methylamino)-1-pyrrolidinyl]-4- oxo-1-(2-thiazolyl)-1,8-naphthyridine-3-carboxylic acid for treatment of cancer” (priority 2006, dated 2013).

Legend:
clinical = conditions: human, in vivo
Description: SNS-595 was administered to patients with advanced solid cancers as an IV infusion over 10 minutes on 2 schedules. In the first schedule (A), a weekly dose of SNS-595 was administered for three weeks followed by at least 7 days off (qwk×3). In the second schedule (B), a dose of SNS-595 was administered once every three weeks (q3wk).
In both schedules, the starting dose of SNS-595 was 3 mg/m^2, and doses were escalated by sequential cohorts of 3. The doses were doubled until the first related adverse event at or above Grade 2 or until the first abnormal lab value. The doses were then escalated by a modified Fibonacci schema.
For patients dosed according to schedule A, PK samples were collected on treatment Days 1 and 15 and were assayed using noncompartmental analysis. Plasma SNS-595 concentrations were determined using a validated LC-MS/MS assay. […] FIG. 1 depicts the plasma concentrations of SNS-595 over time among the various patient cohorts.
For patients dosed according to schedule B, pharmacokinetic parameters were evaluated in 36 patients (21 heavily pretreated and 15 minimally pretreated) after a single dose of 3 to 75 mg/m^2.
In study A, pharmacokinetics were assessed on Days 1 and 15 (after the first and third doses).

[1] = system: HCT116 colon carcinoma cell line; assay: Combination studies, MTT assay, Combination Index; format: cell-based
Description: Cell lines and Cell Culture: HCT116 and NCI-H460 cell lines were obtained from ATCC. SKOV3(p53−/−) and SKOV3(p53+/+) were obtained from the lab of Dr. George Stark of the Lerner Institute of the Cleveland Clinic. All cell lines were cultured in RPMI media supplemented with 10% FBS 1% Sodium Bicarbonate solution and 1% Antibiotic Solution (Cellgro).
MTT assay: Cells were plated at 4000 cells per well (except SKOV3 (p53−/−) which were plated at 8000 cells per well) in a 96 well plate, incubated for 24 hours and then treated with compound. Compound treatment lasted 72 hours. Cells were then incubated with 5% MTT for 1-2 hours, and lysed. MTT was colorimetrically read at 570 nm. The fraction of dead cells was determined by the following formula: Fraction of Dead cells=1−[Abs of sample well−Avg(Abs of no cell control)]/[Avg(Abs of DMSO only control)−Avg(abs of no cell control)]
Scheduling studies: When compounds were dosed with a schedule that included a washout, cells were washed with 100 μl of fresh warm media for 30 minutes, followed by another wash after 90 minutes.
Statistical Analysis: The data (Fraction of Dead cells) was analyzed using Calculsyn.V2 (Biosoft) and is herein represented as the value of the Combination Index at Fraction affected (Fa)=0.5. All data is shown with error bars indicating the 95% confidence intervals of the mean value.
A combination is said to be additive if it yields a Combination Index of 0.85-1.2. A combination is said to be synergistic if it yields a Combination Index less than 0.85 and a combination is said to be antagonistic if it yields a Combination Index of more than 1.2.

[2] = co-dosed, or dosed with 24 hours delay, HCT116

Question: With CN[C@H]1CN(c2ccc3c(=O)c(C(=O)O)cn(-c4nccs4)c3n2)C[C@@H]1OC [SNS-595, (+)-1,4-dihydro-7-[(3S,4S)-3-methoxy-4-(methylamino)-1-pyrrolidinyl]-4-oxo-1-(2-thiazolyl)-1,8-naphthyridine-3-carboxylic acid] as the compound, how does the “AUC (area under curve) versus dose” value (clinical) read?
Answer: increased proportionally with dose

Question: And the “CL, averaged” value (clinical)?
Answer: 2 L/hr/m^2

Question: And the “CL, volume of distribution and T1/2 across doses” value (clinical)?
Answer: remained unchanged

Question: What about the “Clearance (CL)” value (clinical) of the same compound?
Answer: 2.2 L/hr/m2

Question: And the “Clearance (CL), range” value (clinical)?
Answer: 1.0-3.8 L/hr/m^2

Question: What about the Exposure (clinical) of the same compound?
Answer: 1600 to 15000 ng·h/mL

Question: What about the “T ½, Average” value (clinical) of the same compound?
Answer: 21.3 ± 5.3 h

Question: And the “T ½, Range” value (clinical)?
Answer: 13 to 56 h

Question: What about the “Vss, averaged” value (clinical) of the same compound?
Answer: 53 L/m^2

Question: And the “clearance (CL), averaged” value (clinical)?
Answer: 2 L/hr/m^2

Question: And the “drug dependent alterations in pharmacokinetic parameters” value (clinical)?
Answer: No evidence of drug dependent alterations

Question: And the exposure (clinical)?
Answer: 1100 to 46000 ng·h/mL

Question: And the “volume of distribution (Vss), averaged” value (clinical)?
Answer: 48 L/m^2

Question: And the AUCinf (clinical; 3 mg/m2)?
Answer: 1140 ± 260 ng·h/mL

Question: What about the “T ½” value (clinical; 3 mg/m2) of the same compound?
Answer: 16.4 ± 4.8 h

Question: What about the AUC(0-inf) (clinical; 3 mg/m2, AUCinf) of the same compound?
Answer: 1710 ± 200 ng·h/mL

Question: And the half-life (clinical; 3 mg/m2, T ½)?
Answer: 23.3 ± 7.2 h

Question: And the AUCinf (clinical; 6 mg/m2)?
Answer: 3040 ± 320 ng·h/mL

Question: What about the Cmax (clinical; 6 mg/m2) of the same compound?
Answer: 347 ± 220 ng/mL

Question: And the “T ½” value (clinical; 6 mg/m2)?
Answer: 22.2 ± 1.9 h

Question: What about the AUC(0-inf) (clinical; 6 mg/m2, AUCinf) of the same compound?
Answer: 2090 ± 530 ng·h/mL

Question: And the Cmax (clinical; 6 mg/m2, Cmax)?
Answer: 531 ± 280 ng/mL

Question: And the half-life (clinical; 6 mg/m2, T ½)?
Answer: 13.5 ± 2.2 h

Question: And the AUCinf (clinical; 12 mg/m2)?
Answer: 6320 ± 220 ng·h/mL

Question: What about the Cmax (clinical; 12 mg/m2) of the same compound?
Answer: 2250 ± 1070 ng/mL

Question: And the “T ½” value (clinical; 12 mg/m2)?
Answer: 18.0 ± 4.1 h

Question: What about the AUC(0-inf) (clinical; 12 mg/m2, AUCinf) of the same compound?
Answer: 6810 ± 1680 ng·h/mL

Question: What about the Cmax (clinical; 12 mg/m2, Cmax) of the same compound?
Answer: 1840 ± 2700 ng/mL

Question: And the half-life (clinical; 12 mg/m2, T ½)?
Answer: 19.9 ± 5.3 h

Question: And the “T ½” value (clinical; 15 mg/m2)?
Answer: 26.4 ± 15.2 h

Question: What about the Vssobs (clinical; 15 mg/m2) of the same compound?
Answer: 43.8 ± 7.90 L/m^2

Question: What about the AUC(0-inf) (clinical; 15 mg/m2, AUCinf) of the same compound?
Answer: 10800 ± 4700 ng·h/mL

Question: What about the Cmax (clinical; 15 mg/m2, Cmax) of the same compound?
Answer: 865 ± 318 ng/mL

Question: And the Vssobs (clinical; 18 mg/m2)?
Answer: 47.19 ± 8.06 L/m^2

Question: What about the AUC(0-inf) (clinical; 18 mg/m2, AUCinf) of the same compound?
Answer: 8500 ± 2860 ng·h/mL

Question: And the Cmax (clinical; 18 mg/m2, Cmax)?
Answer: 1690 ± 830 ng/mL

Question: What about the half-life (clinical; 18 mg/m2, T ½) of the same compound?
Answer: 15.8 ± 4.2 h

Question: What about the AUCinf (clinical; 24 mg/m2) of the same compound?
Answer: 12630 ± 860 ng·h/mL

Question: And the “T ½” value (clinical; 24 mg/m2)?
Answer: 15.7 ± 3.2 h

Question: And the AUC(0-inf) (clinical; 24 mg/m2, AUCinf)?
Answer: 15200 ng·h/mL

Question: And the half-life (clinical; 24 mg/m2, T ½)?
Answer: 24.2 h

Question: And the “T ½” value (clinical; 36 mg/m2)?
Answer: 22.5 ± 4.2 h

Question: What about the Vssobs (clinical; 36 mg/m2) of the same compound?
Answer: 61.4 ± 12.8 L/m^2

Question: And the AUC(0-inf) (clinical; 36 mg/m2, AUCinf)?
Answer: 18000 ± 730 ng·h/mL

Question: And the Cmax (clinical; 36 mg/m2, Cmax)?
Answer: 3380 ± 1920 ng/mL

Question: What about the “T ½” value (clinical; 48 mg/m2) of the same compound?
Answer: 26.4 ± 13.1 h

Question: What about the Vssobs (clinical; 48 mg/m2) of the same compound?
Answer: 58.8 ± 14.5 L/m^2

Question: What about the AUC(0-inf) (clinical; 48 mg/m2, AUCinf) of the same compound?
Answer: 29400 ± 11300 ng·h/mL

Question: What about the Cmax (clinical; 48 mg/m2, Cmax) of the same compound?
Answer: 3080 ± 1920 ng/mL

Question: What about the “T ½” value (clinical; 60 mg/m2) of the same compound?
Answer: 25.0 ± 17.9 h

Question: And the Vssobs (clinical; 60 mg/m2)?
Answer: 48.0 ± 7.3 L/m^2

Question: And the AUC(0-inf) (clinical; 60 mg/m2, AUCinf)?
Answer: 40700 ± 23700 ng·h/mL

Question: And the Cmax (clinical; 60 mg/m2, Cmax)?
Answer: 3860 ± 1680 ng/mL

Question: What about the “T ½” value (clinical; 75 mg/m2) of the same compound?
Answer: 25.0 ± 4.9 h

Question: What about the Vssobs (clinical; 75 mg/m2) of the same compound?
Answer: 56.3 ± 9.4 L/m^2

Question: And the AUC(0-inf) (clinical; 75 mg/m2, AUCinf)?
Answer: 46100 ± 6120 ng·h/mL

Question: What about the Cmax (clinical; 75 mg/m2, Cmax) of the same compound?
Answer: 5050 ± 1720 ng/mL

Question: And the half-life (clinical; T1/2, averaged)?
Answer: 19 h

Question: What about the half-life (clinical; T1/2 ± SD) of the same compound?
Answer: 22 ± 11 h

Question: And the half-life (clinical; T ½, Average)?
Answer: 18.5 ± 4.6 h

Question: And the half-life (clinical; T ½, Range)?
Answer: 10 to 33 h

Question: What about the half-life (clinical; terminal half-life) of the same compound?
Answer: ~19 h

Question: What about the half-life (clinical; terminal half-life (T1/2)) of the same compound?
Answer: ~21 h

Question: What about the half-life (clinical; terminal half-life (T1/2), range) of the same compound?
Answer: 13 to 49 h

Question: What about the combination indices ([1]; SNS-595 dosed simultaneously with various cytotoxics, HCT116, Fa=0.5) of the same compound?
Answer: significantly synergistic or at least additive

Question: What about the “combination effect with docetaxel” value [1, 2] of the same compound?
Answer: might have been antagonistic

Question: And the “combination effect with gemcitabin” value [1, 2]?
Answer: might have been antagonistic

Question: And the “combination effect with docetaxel or gemcitabin” value ([1]; treated with the first agent, washed and then treated with the second agent (2 hr wash and 24 hr wash), HCT116)?
Answer: Additivity or possibly synergy
